Measured values: patent publication US11365208B2, “Silylated derivatives of resveratrol and the use thereof in neurodegenerative, neurological or inflammatory diseases” (Consejo Superior De Investigaciones Cientificas, priority 2016, dated 2022)

Experiments:
zebrafish (Danio rerio) = test: PTZ-induced neurotoxicity model in zebrafish larvae, AChE activity; type: in vivo; conditions: 5 dpf larvae, 10 μM, 1 h pre-treatment then 6 h with 5 mM PTZ
Protocol: The objective of this assay was to analyze the protective effect of various derivatives of resveratrol in a model of neurotoxicity induced by the neurotoxin pentylenetetrazole (PTZ). As an experimental model, the zebrafish (Danio rerio) was used to study the effect of the compounds on acetylcholinesterase activity (AChE) in larvae at 5 days post-fertilization (dpf).
Zebrafish embryos were seeded in 50 ml of dilution water (AD) in a Petri dish and grown to 5 dpf (larval stage). […] Next, the larvae were transferred using a Pasteur pipette to a 24-well microplate, so that each well contained five larvae, making ten replicates per condition. First, the pre-treatment of the 5 dpf larvae was performed. For this, the larvae were incubated at 26±1° C. for 1 hour in a volume of 2 ml of AD for the two control groups (Control and Control+PTZ), of physostigmine (Phys) 20 μM, which is a commercial inhibitor of the enzyme AChE for the Phys group, and of the test compounds at a concentration of 10 μM. A medium exchange was then carried out, and the larvae were incubated with the compounds in combination with 5 mM PTZ for 6 hours at 26±1° C. After this incubation period, all of the larvae were examined, and it was determined that the general state of the larvae was totally normal, without any visible anomaly or anomalous behavior. Finally, the larvae were processed for the analysis of the AChE activity.
In order to determine the AChE levels, larvae processing was carried out according to the established technical study protocol once the experimental period was completed. The larvae were homogenized mechanically, and the samples were centrifuged to obtain the supernatant, which were used to determine the levels of the AChE enzyme as a function of the treatments administered. In addition, the determination of total protein of each experimental group was carried out according to the established technical study protocol. Finally, the AChE levels determined in the control group were taken as a reference measurement and deemed to be 100%.

[1] = system: mouse model of Huntington's disease; test: 3-nitro-propionic acid (3NP) mouse model of Huntington's disease; type: in vivo; conditions: 3NP mice
Protocol: Compound 15 was investigated as a possible treatment in a mouse model of Huntington's disease. The compound resveratrol (RES) was added as a reference.
In this model, increasing amounts of 3-nitro-propionic acid (3NP) are injected into the mice, causing lesions with a phenotype very similar to that of Huntington's disease, both mechanically and pathologically. Once the damage was caused, the mice were treated with RES, compound 15, or vehicle, and we studied the effect thereof on the mouse on the basis of different parameters. Behavioral studies (rotarod test), an assessment was made of motor capacity (tabulated on a scale of 0 normal to 4 incapable, in several parameters such as general mouse dystonia, ability to flip over, and the ability to explore), weight was monitored, and subsequent measurements were taken such as of the inhibition of pro-inflammatory cytokines in plasma or brain.
The design of the experiment is shown in FIG. 16. #=Behavioral study and rotarod test; ϕ Administration of the compound; W=weeks of age of the mice; D=Day of the experiment.

NO = NO (nitrite, Griess reagent) in supernatant of LPS-stimulated RAW macrophages; type: cell-based; conditions: 10 μM, 24 h
Protocol: (§1) To determine the production of cytokines, 5×10^5 RAW 264.7 macrophages were seeded in 24-well plates (0.5 ml per well). The compounds to be tested were then added (10 μM), and the macrophages were either stimulated or not through the addition of LPS (1 μg/ml) to the culture medium. After 24 hours, the levels of IL-6 and TNF-α were measured in the supernatants by ELISA using the capture and biotinylated antibodies from BD PharMingen and PrepoTech following known protocols. The levels of NO in the supernatants at 24 hours were measured indirectly by determining the nitrite concentration in the medium using the Griess reagent according to established protocol. A minimum of two independent experiments and three replicates per experiment were performed for each measured value. The values are expressed as the mean±standard deviation.
(§2) In the previous assay, the levels of various inflammation parameters were measured (TNF-α, NO, and IL-6) by ELISA after treatment with RES or with some of the compounds of the invention (2, 3, 5, 6, 8, and 9).

IL-6 = IL-6 in supernatant of LPS-stimulated RAW macrophages (ELISA); type: cell-based; conditions: 10 μM, 24 h
Protocol: as §1, §2

[2] = system: SH-SY5Y neuroblastoma cell line; test: Neuroprotection assay: SH-SY5Y viability after H2O2 damage (MTT); type: cell-based; conditions: 10 μM, H2O2 100 μM, 24 h, 1% DMSO
Protocol: The SH-SY5Y neuroblastoma cell line was cultured in petri dishes pre-treated with collagen (100 ng/ml) with F12 medium supplemented with penicillin/streptomycin and 10% inactivated fetal bovine serum.
(§3) Cell viability assays with neurons were prepared in 96-well plates pre-treated with collagen by seeding 20,000 cells/well in a volume of 100 μL and incubating the cells for 24 h before the addition of the compounds. The compounds to be tested were dissolved in DMSO and added in three different concentrations (1, 10, and 100 μM) in order to determine their toxicity. The final percentage of DMSO in each well was adjusted to 1%. The cell viability was evaluated 24 h after the addition of the compounds by means of the MTT assay according to the manufacturer's method. Mean values and standard deviations were calculated from at least eight different measurements from several independent experiments.
For the neuroprotection assay, the neurons were cultured and seeded in the same manner as for the cell viability assay. […] The cell viability was evaluated 24 h after the addition of the compounds by means of the MTT assay according to the manufacturer's method. Mean values and standard deviations were calculated from at least eight different measurements from several independent experiments. […]

RAW 264.7 macrophages = test: Inflammation assay: RAW macrophage viability after LPS (MTT); type: cell-based; conditions: 10 μM, LPS 100 ng/ml, 24 h, 1% DMSO
Protocol: RAW 264.7 macrophages were cultured in P75 with high-glucose DMEM supplemented with penicillin/streptomycin and 10% inactivated fetal bovine serum.
as §3, with “The cell viability” for “Cell viability”, “with RAW macrophages” for “with neurons”, “plates” for “plates pre-treated with collagen”, “seeding 25,000” for “seeding 20,000”, “for 4” for “for 24”
For the testing of mitigation of damage caused by the addition of LPS, the RAW 264.7 macrophages were cultured according to the procedure described above. […] The cell viability was evaluated 24 h after the addition of the compounds by means of the MTT assay according to the manufacturer's method. Mean values and standard deviations were calculated from at least eight different measurements from several independent experiments.

TNF-α = TNF-α in supernatant of LPS-stimulated RAW macrophages (ELISA); type: cell-based; conditions: 10 μM, 24 h
Protocol: as §1, §2

[3] = system: mouse model of multiple sclerosis; test: Experimental allergic encephalomyelitis (EAE) mouse model of multiple sclerosis; type: in vivo; conditions: for motor capacity: preventive regimen, 20 mg/kg intraperitoneal twice a week for 3 weeks from day 5 after induction; for clinical classification of the motor capacity: 20 mg/kg intraperitoneal twice a week for 2 weeks from day 12 after induction, especially days 20-30
Protocol: Compound 15 was investigated as a possible treatment in a mouse model of multiple sclerosis. The compound resveratrol (RES) was added as a reference. An experimental allergic encephalomyelitis model, EAE, was used as an animal model of multiple sclerosis.
In this model, mice are injected with myelin oligodendrocyte glycoprotein (MOG, MOG35-55, is the 21 amino acid peptide corresponding to the sequence from positions 35 to 55 of the MOG glycoprotein) and virus pertussis (pertussis toxin, PTX) in order to induce the disease. Two days after induction, a new dose of the virus was given again, because some mice were not developing symptoms of EAE. Once the damage was caused, the mice were treated with RES, compound 15, or vehicle, and we studied the effect thereof on the mouse on the basis of different motor parameters on a scale from 0 normal to 4 incapable.
• Vehicle without tween-80 emulsifier (control EAE without T) • Vehicle with tween-80 emulsifier (EAE-T control) • Preventive RES (without tween-80 emulsifier) (RES-PREV) • Therapeutic RES (no tween-80 emulsifier) (RES-TERAP) • Preventive compound 15 (with tween-80 emulsifier) (compound 15-PREV) • Therapeutic compound 15 (with tween-80 emulsifier) (compound 15-TERAP)
(§4) The (intraperitoneal) administration of the compounds (resveratrol, compound 15, and vehicle, with or without tween-80) is started 5 days after induction. 250 μL of the compound in question (20 mg/kg) were injected twice a week and the treatment was maintained for 3 weeks. The treatment was then stopped, but the state of the mice was monitored for another 3 weeks (47 days total).
as §4, with “started 12” for “started 5”, “for 2” for “for 3”

## CC[Si](CC)(CC)Oc1ccc(/C=C/c2cc(O)cc(O[Si](CC)(CC)CC)c2)cc1 [compound 8]
Zebrafish (Danio rerio)
  AChE activity relative to control (neuroprotective effect): lower neuroprotective effect similar to that observed for resveratrol

## CCCC(=O)Oc1ccc(/C=C/c2cc(O[Si](CC)(CC)CC)cc(O[Si](CC)(CC)CC)c2)cc1 [compound 17, 3,5-O-triethylsilyl-4′-butanoyl resveratrol]
Zebrafish (Danio rerio)
  AChE activity relative to control (neuroprotective effect): lower neuroprotective effect similar to that observed for resveratrol

## Oc1ccc(C=Cc2cc(O)cc(O)c2)cc1 [RES, resveratrol]
[1]
  improvement of the phenotype caused by 3NP, compared with compound 15: differences between compound 15 and RES are not great
NO
  NO level in culture medium: significantly decreases
IL-6
  IL-6 level in culture medium: significantly decreases
[2]
  cell viability recovered: up to 50%
RAW 264.7 macrophages
  cell viability recovered: up to 62%
Zebrafish (Danio rerio)
  AChE activity relative to control (neuroprotective effect): lower neuroprotective effect
TNF-α
  TNF-α level in culture medium: significantly decreases
[3]
  motor capacity: does reduce damage on a motor level
[3]; therapeutic regimen
  clinical classification of the motor capacity: do not appear to improve

## CCCCCCCC(=O)OCC1OC(Oc2ccc(/C=C/c3cc(O[Si](C(C)C)(C(C)C)C(C)C)cc(O[Si](C(C)C)(C(C)C)C(C)C)c3)cc2)C(O)C(O)C1O (stereo not drawn) [compound 15, 3,5-O-ditriisopropylsilyl-4′-(6-octanoyl)glucosyl resveratrol]
[1]
  severity of the motor lesions (motor capacity): decreasing the severity of the motor lesions
  weight of the animals: increasing the weight of the animals
[1]; plasma
  levels of pro-inflammatory cytokines such as IL-6: decreasing
Zebrafish (Danio rerio)
  AChE activity relative to control (neuroprotective effect): significantly prevent the decrease in AChE activity induced by PTZ
[3]; 20 mg/kg each, dose of RES in μmol/kg about 3× dose of compound 15
  effectiveness relative to RES on a molar dose basis: much more effective
[3]
  motor capacity: does not have a great effect on motor capacity
[3]; therapeutic regimen
  clinical classification of the motor capacity: improves the clinical classification of the motor capacity of the mice compared to the control
[3]; therapeutic regimen, days 30-47, administration interrupted
  clinical classification of the motor capacity after end of administration: improvement in the clinical classification was maintained

## CCCCCCCC(=O)OCC1OC(Oc2cc(/C=C/c3ccc(O[Si](C(C)C)(C(C)C)C(C)C)cc3)cc(O[Si](C(C)C)(C(C)C)C(C)C)c2)C(O)C(O)C1O (stereo not drawn) [compound 14, 3,4′-O-ditriisopropylsilyl-5-(-6-octanoyl)glucosyl resveratrol]
Zebrafish (Danio rerio)
  AChE activity relative to control (neuroprotective effect): lower neuroprotective effect similar to that observed for resveratrol

## CC[Si](CC)(CC)Oc1cc(/C=C/c2ccc(O)cc2)cc(O[Si](CC)(CC)CC)c1 [compound 9]
Zebrafish (Danio rerio)
  AChE activity relative to control (neuroprotective effect): significantly prevent the decrease in AChE activity induced by PTZ
